# Laboratory results as given in patent US20120090502A1, “DIS-AZO COMPOUND AND OIL INK AND ELECTROWETTING DISPLAYS COMPRISING THE SAME” (JINTEX CORPORATION LTD., priority 2010, published 2012).
# How the values were obtained:
# Type in all cases: physicochemical
# [1] = maximum absorption wavelength and molar absorption coefficient in dodecane; conditions: for wavelength (nm)/dodecane: maximum absorption wavelength
# [2] = solubility in dodecane
# [3] = oil ink performance test: viscosity and surface tension; design: surface tension (dyne/cm^2): unit not given here; conditions: for surface tension (dyne/cm^2): oil ink in dodecane; for viscosity (cp): oil ink: 1.0 g dye dispersed in 10 g dodecane, filtered 0.45 μm
# Procedure: 1.0 g of purified dye (dis-azo compound of the present invention) weighed was dispersed in 10 g of dodecane and then heated to 80° C. and stirred for one hour. After that, the mixture solution was removed to a ultrasonic oscillator and oscillated for one hour and then filtered through 0.45 μm filter to obtain the oil ink of the present invention. […] According to Table 3, ail of the oil ink of the present invention fulfills elementary conditions of oil ink for electrowetting display.
# [4] = oil ink tested by UV-Vis spectrophotometer; design: FoM / value of a / value of b: scale not given here; conditions: oil ink in dodecane; for FoM: Figure of Merit = ε×C; for full width at half maximum (nm): wavelength range at half height of absorption at λ max
# Procedure: 1.0 g of purified dye (dis-azo compound of the present invention) weighed was dispersed in 10 g of dodecane and then heated to 80° C. and stirred for one hour. After that, the mixture solution was removed to a ultrasonic oscillator and oscillated for one hour and then filtered through 0.45 μm filter to obtain the oil ink of the present invention. The oil ink of the present invention was tested by UV-Vis spectrophotometer. According to Table 3, ail of the oil ink of the present invention fulfills elementary conditions of oil ink for electrowetting display.
SMILES,ε (molar absorption coefficient) [1],wavelength (nm)/dodecane [1] [nm],solubility (%) [2] [%],surface tension (dyne/cm^2) [3],viscosity (cp) [3] [cp],FoM [4],full width at half maximum (nm) [4] [nm],value of L ([4]; hue),value of a ([4]; hue),value of b ([4]; hue)
"CCCCCCCCCCc1ccc(N=Nc2ccc(N=Nc3ccc4c5c(cccc35)NC(C)(CCCC)N4)c3ccccc23)cc1 (racemic) [D10-C1,4]",9.11 × 10^3,560,2.15,23.6,2.42,232,320,,,
"CCCCc1ccc(N=Nc2ccc(N=Nc3ccc4c5c(cccc35)NC(CC(C)C)(CC(C)C)N4)c3ccccc23)cc1 [D4-C4,4]",3.41 × 10^3,560,4.00,24.5,2.21,191,250,,,
"CCCCCCCCc1ccc(N=Nc2ccc(N=Nc3ccc4c5c(cccc35)NC(CC(C)C)(CC(C)C)N4)c3ccccc23)cc1 [D8-C4,4]",9.50 × 10^3,580,2.96,23.5,2.33,320,300,,,
"CCCCCCCCCCc1ccc(N=Nc2ccc(N=Nc3ccc4c5c(cccc35)NC(CC(C)C)(CC(C)C)N4)c3ccccc23)cc1 [D10-C4,4]",9.95 × 10^3,590,1.23,24.8,2.55,136,320,,,

# Further lines, results first:
ε (molar absorption coefficient) [1],wavelength (nm)/dodecane [1] [nm],solubility (%) [2] [%],surface tension (dyne/cm^2) [3],viscosity (cp) [3] [cp],FoM [4],full width at half maximum (nm) [4] [nm],value of L ([4]; hue),value of a ([4]; hue),value of b ([4]; hue),SMILES
7.05 × 10^3,580,6.00,23.2,2.42,526,300,,,,"CCCCCCCCc1ccc(N=Nc2ccc(N=Nc3ccc4c5c(cccc35)NC(CC)(CC)N4)c3ccccc23)cc1 [D8-C2,2]"
8.13 × 10^3,580,8.00,25.1,2.35,779,320,0.01,0.38,−0.18,"CCCCCCCCCCc1ccc(N=Nc2ccc(N=Nc3ccc4c5c(cccc35)NC(CC)(CC)N4)c3ccccc23)cc1 [D10-C2,2]"
